According to patent EP3609473B1, “ORAL COMPOSITIONS FOR THE TREATMENT OF IRON […]” (Labomar S.p.A., priority 2017, dated 2018):

Settings: after SGF, 50 ml simulated intestinal fluid (SIF) added, pH settled at 6.0 with NaOH 2.5% w/v
Method: The solid composition (A) is maintained for 90 minutes (corresponding to the empty stomach emptying time) in a simulated gastric environment (SGF) pH 1.5 by adding HCl, thermostated at 37°C.
Subsequently, 50 ml of simulated intestinal fluid (SIF) are added to the system to simulate the transit in the first intestinal tract and the pH is settled at 6.0 with NaOH 2.5% w/v.

NCC(=O)[O-].NCC(=O)[O-].[Fe+2] [bisglycinate iron, ferrous bisglycinate]
colour of the liquid (purple = iron in reduced form; amber = no more reducible ferric oxides): amber-coloured liquid
